Source: ChEMBL document CHEMBL1201862, “PubChem BioAssay data set” (2004)
Active and inactive are the calls of the source.

Key:
[1] = NIH-3T3 fibroblast cytotoxicity, dose response, cytotoxicity control, cell-based, fluorescence, Alamar Blue, secondary assay (AID 2327); type: functional;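 note: NIH-3T3 mouse fibroblasts cultured with fluconazole at 8 µg/mL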
[2] = C. albicans growth with fluconazole, confirmation, fluorescence, retest (AID 2467); type: functional, cell-based
Vero = Vero cell cytotoxicity, cytotoxicity control for flavivirus capping enzyme inhibitors (AID 588742); type: functional; conditions: Chlorocebus sabaeus
Cysteine protease ATG4B = Cysteine protease ATG4B (Homo sapiens, UniProt Q9Y4P1); type: functional;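 note: Fluorescence-based dose-response confirmation assay measuring inhibition of ATG4B activity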
Phospholipase A2 = Phospholipase A2 (Homo sapiens, UniProt P04054); type: functional;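 note: confirmatory dose-response counterscreen on phospholipase A2, testing hits that came from an ultra-high-throughput screen for ATG4B inhibitors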
Genome polyprotein = Genome polyprotein (dengue virus type 2, UniProt P29990); test: Dengue-2 NS5 methyltransferase inhibitors, primary screen, biochemical, confirmation dose response (AID 588689); type: functional
[3] = target: 1-phosphatidylinositol 4,5-bisphosphate phosphodiesterase gamma-1 (Homo sapiens, UniProt P19174); test: Counterscreen for inhibitors of phospholipase C isozymes (PLC-B3): Fluorescence-based biochemical high throughput dose response assay to identify inhibitors of phospholipase C isozymes (PLC-gamma1).
[4] = target: Protein kinase C theta type (Homo sapiens, UniProt Q04759); test: Navigating the Kinome. Panel member name: PRKCQ; type: functional
[5] = target: Proto-oncogene tyrosine-protein kinase receptor Ret (Homo sapiens, UniProt P07949); type: functional;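 note: measured within a kinome-wide profiling panel, RET as the panel member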
[6] = target: Serine/threonine-protein kinase D3 (Homo sapiens, UniProt O94806); type: functional;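 note: determined within a kinase panel screen, with PRKCN as the panel member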
[7] = target: Casein kinase I isoform alpha (Homo sapiens, UniProt P48729); type: functional
LIM domain kinase 1 = LIM domain kinase 1 (Homo sapiens, UniProt P53667); test: Navigating the Kinome. Panel member name: LIMK1; type: functional
[8] = target: Serine/threonine-protein kinase TAO1 (Homo sapiens, UniProt Q7L7X3); type: functional
[9] = target: High affinity nerve growth factor receptor (Homo sapiens, UniProt P04629); type: functional;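 note: NTRK1 tested as one member of a kinome-wide profiling panel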
[10] = target: Hepatocyte growth factor receptor (Homo sapiens, UniProt P08581); type: functional;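 note: kinase panel profiling across the kinome, with MET as the panel member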
[11] = target: Receptor-type tyrosine-protein kinase FLT3 (Homo sapiens, UniProt P36888); type: functional;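 note: FLT3 was tested as one member of a kinome-wide kinase panel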
[12] = target: G protein-coupled receptor kinase 5 (Homo sapiens, UniProt P34947); test: Navigating the Kinome. Panel member name: GPRK5; type: functional
Focal adhesion kinase 1 = Focal adhesion kinase 1 (Homo sapiens, UniProt Q05397); type: functional;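 note: measured as one member of a kinome panel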
[13] = target: Rho-associated protein kinase 1 (Homo sapiens, UniProt Q13464); type: functional;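 note: measured within a broad kinome-wide panel profiling many kinases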
[14] = target: Cyclin-dependent kinase 8 (Homo sapiens, UniProt P49336); test: Navigating the Kinome. Panel member name: CDK8; type: functional
[15] = target: Cyclin-dependent kinase 7 (Homo sapiens, UniProt P50613); type: functional;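 note: value comes from a kinome-wide kinase profiling panel in which CDK7 is one member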
[16] = target: Cyclin-dependent kinase 9 (Homo sapiens, UniProt P50750); type: functional;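 note: value from the CDK9 entry of a kinome-spanning kinase panel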
[17] = target: Macrophage-stimulating protein receptor (Homo sapiens, UniProt Q04912); test: Navigating the Kinome. Panel member name: MST1R; type: functional
[18] = target: Dual specificity mitogen-activated protein kinase kinase 2 (Homo sapiens, UniProt P36507); test: Navigating the Kinome. Panel member name: MAP2K2; type: functional
[19] = target: Calcium/calmodulin-dependent protein kinase type II subunit alpha (Homo sapiens, UniProt Q9UQM7); test: Navigating the Kinome. Panel member name: CAMK2A; type: functional
[20] = target: Protein kinase C zeta type (Homo sapiens, UniProt Q05513); type: functional;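 note: measured as one member of a broad kinase profiling panel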
[21] = target: Serine/threonine-protein kinase PLK3 (Homo sapiens, UniProt Q9H4B4); type: functional
[22] = target: Protein kinase C delta type (Homo sapiens, UniProt Q05655); type: functional
[23] = target: Serine/threonine-protein kinase D2 (Homo sapiens, UniProt Q9BZL6); type: functional;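 note: measured against PRKD2 as one member of a kinome-wide kinase profiling panel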
[24] = target: Ribosomal protein S6 kinase beta-1 (Homo sapiens, UniProt P23443); type: functional;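 note: measured as one member of a kinome-wide profiling panel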
[25] = target: Tyrosine-protein kinase Blk (Homo sapiens, UniProt P51451); type: functional;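 note: obtained as one member of a kinome-wide kinase assay panel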
Insulin receptor = Insulin receptor (Homo sapiens, UniProt P06213); type: functional;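 note: insulin receptor kinase tested as one member of a kinome-wide kinase panel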
[26] = target: Inhibitor of nuclear factor kappa-B kinase subunit alpha (Homo sapiens, UniProt O15111); type: functional
[27] = target: Receptor tyrosine-protein kinase erbB-2 (Homo sapiens, UniProt P04626); test: Navigating the Kinome. Panel member name: ERBB2; type: functional
[28] = target: MAP kinase-activated protein kinase 3 (Homo sapiens, UniProt Q16644); type: functional;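 note: value comes from a kinome-wide profiling panel in which MAPKAPK3 is one of the panel members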
[29] = target: Mitogen-activated protein kinase 1 (Homo sapiens, UniProt P28482); type: functional
[30] = target: Calcium/calmodulin-dependent protein kinase type 1 (Homo sapiens, UniProt Q14012); type: functional
[31] = target: Serine/threonine-protein kinase pim-2 (Homo sapiens, UniProt Q9P1W9); type: functional;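 note: value comes from a broad kinase panel profiling study in which PIM2 was one of the panel members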
[32] = target: 3-phosphoinositide-dependent protein kinase 1 (Homo sapiens, UniProt O15530); type: functional;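 note: value comes from the Navigating the Kinome panel, PDPK1 member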
[33] = target: Fibroblast growth factor receptor 3 (Homo sapiens, UniProt P22607); type: functional
[34] = target: Serine/threonine-protein kinase PLK1 (Homo sapiens, UniProt P53350); type: functional;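 note: PLK1 measured as one member of a kinome-wide profiling panel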
[35] = target: Mitogen-activated protein kinase 12 (Homo sapiens, UniProt P53778); type: functional;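 note: measured as one member of a kinome-wide kinase profiling panel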
Sequence of Mitogen-activated protein kinase 12 (P53778 whole entry): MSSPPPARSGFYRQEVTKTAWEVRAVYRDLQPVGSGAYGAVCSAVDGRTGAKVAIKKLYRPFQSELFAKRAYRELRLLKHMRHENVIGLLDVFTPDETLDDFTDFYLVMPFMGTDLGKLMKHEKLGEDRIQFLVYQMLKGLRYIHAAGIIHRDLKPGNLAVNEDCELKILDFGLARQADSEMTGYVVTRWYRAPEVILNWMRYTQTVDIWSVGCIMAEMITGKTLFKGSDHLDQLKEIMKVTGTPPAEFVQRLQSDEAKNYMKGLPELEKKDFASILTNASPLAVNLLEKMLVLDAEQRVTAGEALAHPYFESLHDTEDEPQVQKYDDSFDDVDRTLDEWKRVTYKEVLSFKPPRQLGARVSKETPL

Sequence of Receptor-type tyrosine-protein kinase FLT3 (P36888 whole entry): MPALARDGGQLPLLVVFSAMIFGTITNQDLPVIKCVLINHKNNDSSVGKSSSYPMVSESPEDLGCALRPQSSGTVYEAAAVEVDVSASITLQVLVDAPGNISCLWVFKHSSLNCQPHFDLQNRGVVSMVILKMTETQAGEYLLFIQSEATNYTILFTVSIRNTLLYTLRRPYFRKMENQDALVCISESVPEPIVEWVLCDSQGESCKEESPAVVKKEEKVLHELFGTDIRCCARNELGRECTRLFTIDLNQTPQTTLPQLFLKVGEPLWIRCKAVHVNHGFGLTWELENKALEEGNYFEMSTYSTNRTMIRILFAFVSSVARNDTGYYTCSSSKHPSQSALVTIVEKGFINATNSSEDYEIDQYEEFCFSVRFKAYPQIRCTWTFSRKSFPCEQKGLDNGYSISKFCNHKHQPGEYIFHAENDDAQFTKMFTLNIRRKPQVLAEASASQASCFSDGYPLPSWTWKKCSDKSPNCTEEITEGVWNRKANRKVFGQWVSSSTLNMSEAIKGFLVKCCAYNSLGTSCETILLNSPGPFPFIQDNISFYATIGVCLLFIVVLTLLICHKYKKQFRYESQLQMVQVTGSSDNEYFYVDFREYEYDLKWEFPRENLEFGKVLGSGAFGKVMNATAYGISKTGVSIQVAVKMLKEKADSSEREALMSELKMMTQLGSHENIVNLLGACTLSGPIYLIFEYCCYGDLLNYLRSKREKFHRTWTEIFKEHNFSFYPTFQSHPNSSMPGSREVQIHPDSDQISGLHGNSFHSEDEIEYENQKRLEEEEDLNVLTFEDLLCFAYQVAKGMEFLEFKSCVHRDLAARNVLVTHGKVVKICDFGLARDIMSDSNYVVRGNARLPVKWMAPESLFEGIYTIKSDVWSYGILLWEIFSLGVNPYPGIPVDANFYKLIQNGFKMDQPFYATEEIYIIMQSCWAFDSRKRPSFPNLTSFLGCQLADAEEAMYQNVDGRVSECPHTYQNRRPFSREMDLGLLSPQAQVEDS
Sequence of High affinity nerve growth factor receptor (P04629 whole entry): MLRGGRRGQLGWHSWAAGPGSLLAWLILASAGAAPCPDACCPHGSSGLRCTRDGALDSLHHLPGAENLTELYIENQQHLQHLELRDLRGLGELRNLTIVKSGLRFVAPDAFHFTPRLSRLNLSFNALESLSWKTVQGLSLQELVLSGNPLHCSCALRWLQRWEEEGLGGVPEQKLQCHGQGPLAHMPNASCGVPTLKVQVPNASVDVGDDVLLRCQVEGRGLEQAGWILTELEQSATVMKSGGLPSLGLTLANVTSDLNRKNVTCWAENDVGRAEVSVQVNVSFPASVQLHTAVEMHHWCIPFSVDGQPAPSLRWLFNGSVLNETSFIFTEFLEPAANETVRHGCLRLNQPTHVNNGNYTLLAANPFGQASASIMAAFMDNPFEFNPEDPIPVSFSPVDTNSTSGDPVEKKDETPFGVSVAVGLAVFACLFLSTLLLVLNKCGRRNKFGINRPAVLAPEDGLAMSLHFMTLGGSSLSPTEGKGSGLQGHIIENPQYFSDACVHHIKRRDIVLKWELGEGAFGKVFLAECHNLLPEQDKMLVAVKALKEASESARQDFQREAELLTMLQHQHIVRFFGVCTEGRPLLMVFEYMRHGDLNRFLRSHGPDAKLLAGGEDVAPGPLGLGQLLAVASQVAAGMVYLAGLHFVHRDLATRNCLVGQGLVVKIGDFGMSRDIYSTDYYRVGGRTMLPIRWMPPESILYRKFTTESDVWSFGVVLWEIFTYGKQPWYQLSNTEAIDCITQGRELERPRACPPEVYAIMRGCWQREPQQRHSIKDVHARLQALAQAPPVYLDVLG
Sequence of Rho-associated protein kinase 1 (Q13464 whole entry): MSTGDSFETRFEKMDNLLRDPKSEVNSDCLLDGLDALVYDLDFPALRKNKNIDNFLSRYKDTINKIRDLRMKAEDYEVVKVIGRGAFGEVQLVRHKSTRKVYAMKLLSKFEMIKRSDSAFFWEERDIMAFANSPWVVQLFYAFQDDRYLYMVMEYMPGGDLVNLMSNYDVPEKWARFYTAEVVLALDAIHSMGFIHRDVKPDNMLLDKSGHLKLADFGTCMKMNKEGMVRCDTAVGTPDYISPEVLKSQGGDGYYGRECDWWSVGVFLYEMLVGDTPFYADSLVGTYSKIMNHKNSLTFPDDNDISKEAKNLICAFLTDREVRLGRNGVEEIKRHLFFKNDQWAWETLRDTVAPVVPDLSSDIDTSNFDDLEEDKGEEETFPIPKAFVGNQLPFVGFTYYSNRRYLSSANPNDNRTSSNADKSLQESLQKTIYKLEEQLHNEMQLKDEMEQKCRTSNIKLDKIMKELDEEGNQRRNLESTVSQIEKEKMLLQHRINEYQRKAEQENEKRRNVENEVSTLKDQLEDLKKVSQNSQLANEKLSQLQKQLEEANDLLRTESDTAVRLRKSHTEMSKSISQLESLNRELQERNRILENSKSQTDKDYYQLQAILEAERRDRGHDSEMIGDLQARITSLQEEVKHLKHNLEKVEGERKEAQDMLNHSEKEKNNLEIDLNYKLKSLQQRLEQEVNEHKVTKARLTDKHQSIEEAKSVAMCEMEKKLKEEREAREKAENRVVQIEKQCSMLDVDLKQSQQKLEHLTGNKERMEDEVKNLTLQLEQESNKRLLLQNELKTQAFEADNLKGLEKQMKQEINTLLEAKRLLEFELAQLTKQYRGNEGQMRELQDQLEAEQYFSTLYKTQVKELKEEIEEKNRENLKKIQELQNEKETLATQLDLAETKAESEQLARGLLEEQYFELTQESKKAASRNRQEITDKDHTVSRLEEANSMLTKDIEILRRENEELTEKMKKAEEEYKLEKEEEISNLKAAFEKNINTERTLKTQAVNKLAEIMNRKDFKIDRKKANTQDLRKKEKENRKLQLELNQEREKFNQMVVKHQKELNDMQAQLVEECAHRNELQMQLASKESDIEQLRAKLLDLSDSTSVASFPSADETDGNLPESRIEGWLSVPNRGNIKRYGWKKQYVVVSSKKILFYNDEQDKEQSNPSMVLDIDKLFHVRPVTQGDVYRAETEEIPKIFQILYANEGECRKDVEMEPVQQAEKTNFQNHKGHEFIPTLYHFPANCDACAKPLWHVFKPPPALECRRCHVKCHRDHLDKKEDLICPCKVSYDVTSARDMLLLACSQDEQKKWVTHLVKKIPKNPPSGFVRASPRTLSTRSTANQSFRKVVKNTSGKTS
Sequence of LIM domain kinase 1 (P53667 whole entry, the tested form may be a part): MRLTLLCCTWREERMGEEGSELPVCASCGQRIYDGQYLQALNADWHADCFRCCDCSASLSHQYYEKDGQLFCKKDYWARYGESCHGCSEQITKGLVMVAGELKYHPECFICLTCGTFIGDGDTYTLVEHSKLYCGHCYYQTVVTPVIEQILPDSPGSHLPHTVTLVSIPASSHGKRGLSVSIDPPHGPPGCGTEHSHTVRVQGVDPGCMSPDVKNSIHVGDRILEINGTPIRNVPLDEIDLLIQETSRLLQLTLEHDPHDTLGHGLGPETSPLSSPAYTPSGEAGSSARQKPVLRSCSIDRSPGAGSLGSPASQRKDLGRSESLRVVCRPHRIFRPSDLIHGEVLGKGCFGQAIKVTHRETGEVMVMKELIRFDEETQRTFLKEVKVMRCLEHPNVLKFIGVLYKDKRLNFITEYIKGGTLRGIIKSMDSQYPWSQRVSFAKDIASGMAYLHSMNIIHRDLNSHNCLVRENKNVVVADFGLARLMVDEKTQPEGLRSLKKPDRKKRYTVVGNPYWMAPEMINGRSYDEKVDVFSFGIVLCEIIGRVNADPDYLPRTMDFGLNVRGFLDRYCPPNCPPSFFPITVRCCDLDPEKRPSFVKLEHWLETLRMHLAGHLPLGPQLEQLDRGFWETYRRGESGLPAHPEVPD
Sequence of Cysteine protease ATG4B (Q9Y4P1 whole entry): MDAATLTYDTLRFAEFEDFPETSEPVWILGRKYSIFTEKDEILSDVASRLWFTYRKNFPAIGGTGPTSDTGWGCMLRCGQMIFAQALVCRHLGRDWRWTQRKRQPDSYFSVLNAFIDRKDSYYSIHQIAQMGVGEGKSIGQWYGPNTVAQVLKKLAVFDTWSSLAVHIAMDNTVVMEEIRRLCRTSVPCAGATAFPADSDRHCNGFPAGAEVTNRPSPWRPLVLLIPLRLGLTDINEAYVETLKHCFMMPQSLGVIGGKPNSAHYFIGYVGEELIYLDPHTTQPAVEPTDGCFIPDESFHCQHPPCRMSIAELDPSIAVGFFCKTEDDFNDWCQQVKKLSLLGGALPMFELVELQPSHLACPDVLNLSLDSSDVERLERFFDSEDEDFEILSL
Sequence of Casein kinase I isoform alpha (P48729 whole entry, the tested form may be a part, canonical isoform): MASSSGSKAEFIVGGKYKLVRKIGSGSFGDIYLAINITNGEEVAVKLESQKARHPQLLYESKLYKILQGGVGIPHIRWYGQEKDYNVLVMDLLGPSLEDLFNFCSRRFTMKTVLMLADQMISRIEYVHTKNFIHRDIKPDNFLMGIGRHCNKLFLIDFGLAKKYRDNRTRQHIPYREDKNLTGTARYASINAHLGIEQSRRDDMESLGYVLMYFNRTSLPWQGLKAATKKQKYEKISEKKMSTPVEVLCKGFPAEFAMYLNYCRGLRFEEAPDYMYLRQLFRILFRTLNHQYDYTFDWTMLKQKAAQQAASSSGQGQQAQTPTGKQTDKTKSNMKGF
Sequence of Phospholipase A2 (P04054 whole entry): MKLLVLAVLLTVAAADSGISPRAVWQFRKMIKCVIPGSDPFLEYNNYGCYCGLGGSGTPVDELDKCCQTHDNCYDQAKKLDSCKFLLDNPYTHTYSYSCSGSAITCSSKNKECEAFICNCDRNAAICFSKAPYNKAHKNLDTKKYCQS

For `O=C1C=C(NCc2ccccc2)c2ccccc2C1=O`, the EC50 [1] was 2.61 µM (inconclusive), the EC50 [2] was 1.84 µM (active) and the CC50 (Vero) was 19.1 µM (active).

For `O=C(O)c1[nH]c2ccccc2c1C(c1cc(Cl)cc([N+](=O)[O-])c1O)c1c(C(=O)O)[nH]c2ccccc12`, the IC50 (Cysteine protease ATG4B) was 3.46 µM (active), the IC50 (Phospholipase A2) was 9.04 µM (active) and the IC50 (Genome polyprotein) was 9.77 µM (active). For the same molecule, the IC50 [3] was 26.6 µM (inactive).

In the case of `Cc1cc(=O)[nH]nc1-c1ccc(NC(=O)Nc2cc(C(F)(F)F)ccc2F)c(Cl)c1`, the Ki [4] is reported as > 2.51 µM (inactive), the Ki [5] is reported as 0.00316 µM (active) and the Ki [6] is reported as > 3.98 µM (inactive). For the same molecule, the Ki [7] was > 3.98 µM (inactive), the Ki (LIM domain kinase 1) was > 3.16 µM (inactive) and the Ki [8] was > 6.31 µM (inactive). The Ki [9] was 0.0631 µM (active), the Ki [10] was > 2.51 µM (inactive) and the Ki [11] was > 3.16 µM (inactive). For the same molecule, the Ki [12] was > 3.98 µM (inactive), the Ki (Focal adhesion kinase 1) was > 6.31 µM (inactive) and the Ki [13] was > 3.98 µM (inactive). For the same molecule, the Ki [14] was 0.158 µM (active), the Ki [15] was > 3.98 µM (inactive) and the Ki [16] was > 1.58 µM (inactive). The Ki [17] was > 3.98 µM (inactive), the Ki [18] was > 3.98 µM (inactive) and the Ki [19] was > 3.98 µM (inactive).

For `CCOC(=O)c1cn(-c2ccc(O)cc2C)c2cc(-c3ccncc3)ccc2c1=O`, the Ki [20] was > 7.94 µM (inactive), the Ki [21] was > 7.94 µM (inactive) and the Ki [22] was 0.501 µM (active). For the same molecule, the Ki [23] was > 10 µM (inactive), the Ki [24] was > 6.31 µM (inactive) and the Ki (LIM domain kinase 1) was > 10 µM (inactive). The Ki [25] was > 1.58 µM (inactive), the Ki [9] was > 2.51 µM (inactive) and the Ki (Insulin receptor) was > 5.01 µM (inactive). The Ki [10] was > 3.16 µM (inactive), the Ki [26] was > 3.98 µM (inactive) and the Ki [11] was > 2.51 µM (inactive). For the same molecule, the Ki [27] was > 1.58 µM (inactive), the Ki [28] was > 10 µM (inactive) and the Ki [29] was > 7.94 µM (inactive). The Ki [13] was 0.158 µM (active), the Ki [30] was > 7.94 µM (inactive) and the Ki [31] was > 1.58 µM (inactive). The Ki [32] was > 3.98 µM (inactive), the Ki [33] was > 2 µM (inactive) and the Ki [34] was > 7.94 µM (inactive). For the same molecule, the Ki [35] was > 6.31 µM (inactive).
